The record followed here is ChEMBL document CHEMBL1201862, “PubChem BioAssay data set” (2004).

The source made the active and inactive calls.

In series [1] the target is Peroxisome proliferator-activated receptor gamma/Nuclear receptor coactivator 2 (Homo sapiens, UniProt P37231). The class given is functional.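 Further: agonist potency for raising coactivator recruitment to the receptor.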
In series [2] the target is Cytochrome P450 3A4 (Homo sapiens, UniProt P08684).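 Further: CYP3A4 tested as one member of a cytochrome P450 panel screen.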
Series [3] has as its target Peroxisome proliferator-activated receptor gamma/Nuclear receptor coactivator 1 (Homo sapiens, UniProt P37231). It counts as functional.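 Further: agonist potency as compounds enhance coactivator SRC-1 recruitment to PPARgamma.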
The target of series [4] is Peroxisome proliferator-activated receptor gamma/Nuclear receptor coactivator 3 (Homo sapiens, UniProt P37231). It counts as functional.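 Further: agonist potency for raising coactivator recruitment to the receptor.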
In series [5] the target is T1, Luciferin 4-monooxygenase (Photinus pyralis, UniProt P08659). Nature of the series: inhibition of purified Photinus pyralis luciferase – biochemical, luminescence, dose response (AID 1891).
Series [6] in a line: antiviral protection against BTV-induced cell death – arbovirus, BSR cells, confirmation (AID 1250).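 Further: protection from viral cytopathic effect measured as cell viability by ATP luminescence.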 The class given is functional.
The subject of series [7] is H9c2. Briefly: cells. It counts as functional, cell-based. The settings on record: Rattus norvegicus, H9c2, Myocardium.
A short description of series [8]: Luminescence Cell-Based Dose Confirmation HTS to Identify Inhibitors of Platelet Dense Granule Release. [Related pubchem assays: 1663 (Primary HTS), 1678 (Summary of Project)]. It counts as functional.
For series [9], the target named is Lytic switch protein BZLF1 (Epstein-Barr virus (strain B95-8) (HHV-4) (Human herpesvirus 4), UniProt P03206). Briefly: inhibition of BZLF1 ZTA DNA binding – biochemical, fluorescence polarization, Epstein-Barr virus, 1536-well, counter-screen for EBNA-1 inhibitor project, dose response (AID 2377).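 Further: fluorescence polarization of Cy5-labelled ZRE DNA probe bound by purified Zta.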 On the set-up: species or system human gammaherpesvirus 4. (In general: Fluorescence polarisation rises when a labelled molecule tumbles more slowly, as on binding a larger partner.)

The target of series [10] is Epstein-Barr nuclear antigen 1 (Epstein-Barr virus (strain B95-8) (HHV-4) (Human herpesvirus 4), UniProt P03211). Briefly: inhibition of EBV nuclear antigen 1 DNA binding – biochemical, fluorescence polarization, 1536-well, dose response (AID 2381).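 Further: fluorescence polarization of a Cy5 DNA probe bound by EBNA-1 protein.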 Further details: species or system human gammaherpesvirus 4.
Series [11] deals with Cytochrome P450 2C19 (Homo sapiens, UniProt P33261). Briefly: Cytochrome panel assay with activity outcomes. Panel member name: p450-cyp2c19 Compounds with AC50 equal or less than 10 uM are considered active. The settings on record: read-out: AC50. The class given is functional.
In series [12] the target is T2, Bcl-2-related protein A1 (Mus musculus, UniProt Q07440).
T2 sequence (Q07440 whole entry): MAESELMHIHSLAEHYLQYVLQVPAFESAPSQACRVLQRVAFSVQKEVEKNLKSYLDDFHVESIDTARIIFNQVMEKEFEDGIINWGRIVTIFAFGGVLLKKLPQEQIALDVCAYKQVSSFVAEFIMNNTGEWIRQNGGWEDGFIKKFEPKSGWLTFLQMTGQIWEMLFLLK
Nature of the series: small-molecule antagonists of Bfl-1/BH3 interaction – biochemical, TR-FRET, mouse Bfl-1, confirmation (AID 621).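 Further: TR-FRET binding of GST-Bfl-1 to FITC-labelled Bid peptide via terbium antibody.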 For orientation: In TR-FRET formats the signal depends on donor and acceptor labels being close together.

In series [13] the target is T2, Bcl-2-related protein A1. Nature of the series: Bfl-1 binding inhibitors, SAR follow-up, biochemical, fluorescence polarization (AID 1070).
Series [14] deals with Glyceraldehyde-3-phosphate dehydrogenase (Homo sapiens, UniProt P04406).
Series [15] concerns the target T1, Luciferin 4-monooxygenase. Nature of the series: Counter Screen for Luciferase-based Assay Positives. [Related pubchem assays: 620, 618, 411 ]. (Counterscreens check selectivity or assay interference.)
Series [16] deals with HT-1080. Briefly: HT1080 cell viability loss – fluorescence readout (AID 620). It counts as functional, cell-based. The conditions noted are these: Homo sapiens.
Series [17] addresses T3, Sentrin-specific protease 8 (Homo sapiens, UniProt Q96LD8).
T3 sequence (Q96LD8 whole entry): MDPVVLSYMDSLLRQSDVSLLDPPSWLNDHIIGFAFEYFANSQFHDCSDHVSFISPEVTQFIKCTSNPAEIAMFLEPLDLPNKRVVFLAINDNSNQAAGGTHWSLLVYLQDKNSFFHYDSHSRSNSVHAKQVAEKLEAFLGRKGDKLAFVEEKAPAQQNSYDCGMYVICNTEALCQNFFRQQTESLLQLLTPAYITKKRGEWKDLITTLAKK
It counts as functional.

A short description of series [18]: Luminescence Cell-Based Dose Response HTS to Identify Activators of Luciferase Translation or Activity in H4 […] Cells. [Related pubchem assays: 1829 (Project Summary), 1814 (Primary HTS)]. The class given is functional.
Series [19] can be described thus: Luminescence Cell-Based Dose Response to Identify Activators of Luciferase Translation or Activity in H4-C Neuroglioblastoma Cells. [Related pubchem assays: 1829 (Project Summary), 1814 (Primary HTS)]. It counts as functional.
The target of series [20] is T4, Sentrin-specific protease 7 (Homo sapiens, UniProt Q9BQF6).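 Further: Luminescence-based dose-response confirmation of ultra-high-throughput screening hits, measuring inhibition of SENP7.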
T4 sequence (Q9BQF6 whole entry): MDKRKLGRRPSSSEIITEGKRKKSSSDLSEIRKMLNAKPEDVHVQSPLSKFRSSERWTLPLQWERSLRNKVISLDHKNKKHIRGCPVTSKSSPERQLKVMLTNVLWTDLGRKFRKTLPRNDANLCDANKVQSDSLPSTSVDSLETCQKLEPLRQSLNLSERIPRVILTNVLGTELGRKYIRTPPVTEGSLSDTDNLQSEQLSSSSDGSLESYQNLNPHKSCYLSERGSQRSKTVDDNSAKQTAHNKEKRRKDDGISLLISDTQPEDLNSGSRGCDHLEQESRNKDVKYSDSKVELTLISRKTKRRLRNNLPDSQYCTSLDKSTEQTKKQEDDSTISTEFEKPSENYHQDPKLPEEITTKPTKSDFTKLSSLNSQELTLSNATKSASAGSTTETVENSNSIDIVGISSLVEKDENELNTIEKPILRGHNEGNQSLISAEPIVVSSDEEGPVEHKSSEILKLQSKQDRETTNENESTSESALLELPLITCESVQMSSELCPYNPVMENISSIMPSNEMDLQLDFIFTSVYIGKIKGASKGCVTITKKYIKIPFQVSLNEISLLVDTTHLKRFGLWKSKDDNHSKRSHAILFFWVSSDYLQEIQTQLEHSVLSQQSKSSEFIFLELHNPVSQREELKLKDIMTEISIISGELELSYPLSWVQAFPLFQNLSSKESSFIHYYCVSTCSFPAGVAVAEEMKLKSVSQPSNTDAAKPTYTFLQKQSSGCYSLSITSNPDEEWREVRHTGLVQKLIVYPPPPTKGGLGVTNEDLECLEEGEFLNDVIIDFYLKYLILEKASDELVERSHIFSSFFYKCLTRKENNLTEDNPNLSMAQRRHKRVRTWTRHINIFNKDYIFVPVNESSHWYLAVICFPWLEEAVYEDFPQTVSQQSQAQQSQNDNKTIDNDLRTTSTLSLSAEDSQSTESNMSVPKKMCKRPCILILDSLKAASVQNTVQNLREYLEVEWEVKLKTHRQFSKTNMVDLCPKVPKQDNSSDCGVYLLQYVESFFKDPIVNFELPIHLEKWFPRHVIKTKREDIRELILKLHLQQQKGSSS
It counts as functional.

The target of series [21] is T5, Caspase-3 (Homo sapiens, UniProt P42574).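 Further: Dose-response selectivity test against caspase-3 for candidate inhibitors of sentrin-specific proteases (SENPs).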
T5 sequence (P42574 whole entry): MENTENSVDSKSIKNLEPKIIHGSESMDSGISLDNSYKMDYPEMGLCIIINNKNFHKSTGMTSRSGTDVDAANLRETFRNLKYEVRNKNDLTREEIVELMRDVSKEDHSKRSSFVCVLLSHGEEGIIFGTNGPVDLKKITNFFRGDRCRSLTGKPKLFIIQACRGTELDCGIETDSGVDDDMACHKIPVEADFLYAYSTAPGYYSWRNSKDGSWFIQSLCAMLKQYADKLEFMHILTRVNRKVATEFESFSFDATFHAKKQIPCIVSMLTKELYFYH
It counts as functional.

A short description of series [22]: Luminescence Cell-Based Dose Response to Identify Activators of 5'UTR Stem-Loop Driven Prion Protein mRNA Translation in H4-C Neuroglioblastoma Cells. [Related pubchem assays: 1829 (Project Summary), 1814 (Primary HTS)]. The class given is functional.
The test system of series [23] is H4. Nature of the series: Luminescence Cell-Based Dose Response HTS to Identify Activators of 5'UTR Stem-Loop Driven Prion Protein mRNA Translation in H4 Neuroglioblastoma Cells. [Related pubchem assays: 1829 (Project Summary), 1814 (Primary HTS)]. It counts as functional. The conditions noted are these: Homo sapiens.
The target in series [24] is T6, Sentrin-specific protease 6 (Homo sapiens, UniProt Q9GZR1).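 Further: Luminescence-based dose-response confirmatory assay of SENP6 inhibition, following up an ultra-high-throughput screen.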
T6 sequence (Q9GZR1 whole entry): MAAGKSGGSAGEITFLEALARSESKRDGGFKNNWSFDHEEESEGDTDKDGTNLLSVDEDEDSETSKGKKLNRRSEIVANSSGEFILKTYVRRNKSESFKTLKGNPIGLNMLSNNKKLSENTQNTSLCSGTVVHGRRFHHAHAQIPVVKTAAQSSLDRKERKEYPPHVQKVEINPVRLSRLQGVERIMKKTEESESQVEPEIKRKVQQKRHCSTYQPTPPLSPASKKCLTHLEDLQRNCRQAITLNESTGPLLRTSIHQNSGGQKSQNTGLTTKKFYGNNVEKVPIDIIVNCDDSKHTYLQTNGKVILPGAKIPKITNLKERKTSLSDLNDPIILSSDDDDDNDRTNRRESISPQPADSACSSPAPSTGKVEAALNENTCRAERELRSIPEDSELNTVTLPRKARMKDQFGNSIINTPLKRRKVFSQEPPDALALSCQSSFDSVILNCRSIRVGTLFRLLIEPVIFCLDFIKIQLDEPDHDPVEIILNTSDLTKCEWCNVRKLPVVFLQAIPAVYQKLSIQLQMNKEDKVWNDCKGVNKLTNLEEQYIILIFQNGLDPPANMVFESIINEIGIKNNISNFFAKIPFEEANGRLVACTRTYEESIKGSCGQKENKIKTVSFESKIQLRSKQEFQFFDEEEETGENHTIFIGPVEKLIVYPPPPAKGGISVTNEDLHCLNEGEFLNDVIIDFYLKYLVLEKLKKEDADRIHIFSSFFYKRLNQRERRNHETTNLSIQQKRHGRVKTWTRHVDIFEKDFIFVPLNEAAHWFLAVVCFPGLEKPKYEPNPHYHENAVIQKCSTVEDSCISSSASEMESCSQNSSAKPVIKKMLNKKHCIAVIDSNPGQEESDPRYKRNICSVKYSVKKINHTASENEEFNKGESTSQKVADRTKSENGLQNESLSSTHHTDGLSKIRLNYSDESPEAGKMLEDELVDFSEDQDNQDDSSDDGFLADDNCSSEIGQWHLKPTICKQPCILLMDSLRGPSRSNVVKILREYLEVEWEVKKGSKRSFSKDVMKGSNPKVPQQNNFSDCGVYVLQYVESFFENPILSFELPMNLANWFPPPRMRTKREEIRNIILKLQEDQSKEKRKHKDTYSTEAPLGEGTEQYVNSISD
The class given is functional.

The nature of series [25]: Luminescence Cell-Based Dose Confirmation to Identify Activators of 5'UTR Stem-Loop Driven Alpha-Synuclein mRNA Translation in H4 Neuroglioblastoma Cells. [Related pubchem assays: 1829 (Project Summary), 1814 (Primary HTS)]. It counts as functional.

T1 sequence (P08659 whole entry): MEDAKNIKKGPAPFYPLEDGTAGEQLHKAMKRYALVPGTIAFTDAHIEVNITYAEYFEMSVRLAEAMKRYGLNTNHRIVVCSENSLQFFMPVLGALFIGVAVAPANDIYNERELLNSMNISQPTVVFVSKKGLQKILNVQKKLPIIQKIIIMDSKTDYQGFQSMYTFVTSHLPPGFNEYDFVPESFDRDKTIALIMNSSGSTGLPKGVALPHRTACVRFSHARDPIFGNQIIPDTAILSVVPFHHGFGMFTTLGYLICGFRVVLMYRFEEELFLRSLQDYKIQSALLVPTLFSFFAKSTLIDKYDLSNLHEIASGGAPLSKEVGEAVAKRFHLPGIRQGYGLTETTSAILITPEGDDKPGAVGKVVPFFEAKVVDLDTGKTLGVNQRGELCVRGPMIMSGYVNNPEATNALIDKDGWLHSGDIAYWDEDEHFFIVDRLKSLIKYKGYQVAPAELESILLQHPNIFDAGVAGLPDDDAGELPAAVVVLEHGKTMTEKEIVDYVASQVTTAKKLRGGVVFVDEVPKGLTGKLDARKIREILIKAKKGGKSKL
Chain of Lytic switch protein BZLF1 (P03206 whole entry): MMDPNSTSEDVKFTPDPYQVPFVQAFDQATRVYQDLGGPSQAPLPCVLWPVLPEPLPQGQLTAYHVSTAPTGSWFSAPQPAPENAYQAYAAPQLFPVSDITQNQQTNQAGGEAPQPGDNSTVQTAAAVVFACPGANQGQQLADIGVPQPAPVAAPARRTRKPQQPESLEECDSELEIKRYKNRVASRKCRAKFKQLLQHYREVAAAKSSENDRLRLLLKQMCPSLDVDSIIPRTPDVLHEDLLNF
Chain of Peroxisome proliferator-activated receptor gamma/Nuclear receptor coactivator 1 (P37231 whole entry): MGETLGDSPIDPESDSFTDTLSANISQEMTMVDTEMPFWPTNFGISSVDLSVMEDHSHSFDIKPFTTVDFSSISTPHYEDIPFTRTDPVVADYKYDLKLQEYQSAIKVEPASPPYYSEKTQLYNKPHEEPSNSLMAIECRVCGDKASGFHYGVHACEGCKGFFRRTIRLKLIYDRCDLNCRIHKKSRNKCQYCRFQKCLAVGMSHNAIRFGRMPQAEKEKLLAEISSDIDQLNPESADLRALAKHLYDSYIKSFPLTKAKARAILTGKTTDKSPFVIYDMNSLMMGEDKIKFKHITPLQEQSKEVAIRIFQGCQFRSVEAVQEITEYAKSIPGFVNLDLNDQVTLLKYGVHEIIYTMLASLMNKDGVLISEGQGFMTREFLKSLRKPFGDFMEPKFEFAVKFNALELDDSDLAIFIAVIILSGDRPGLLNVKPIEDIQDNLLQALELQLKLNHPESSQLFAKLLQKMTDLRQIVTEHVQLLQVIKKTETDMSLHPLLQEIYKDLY
Chain of Peroxisome proliferator-activated receptor gamma/Nuclear receptor coactivator 1 (Q15788 whole entry, further chain): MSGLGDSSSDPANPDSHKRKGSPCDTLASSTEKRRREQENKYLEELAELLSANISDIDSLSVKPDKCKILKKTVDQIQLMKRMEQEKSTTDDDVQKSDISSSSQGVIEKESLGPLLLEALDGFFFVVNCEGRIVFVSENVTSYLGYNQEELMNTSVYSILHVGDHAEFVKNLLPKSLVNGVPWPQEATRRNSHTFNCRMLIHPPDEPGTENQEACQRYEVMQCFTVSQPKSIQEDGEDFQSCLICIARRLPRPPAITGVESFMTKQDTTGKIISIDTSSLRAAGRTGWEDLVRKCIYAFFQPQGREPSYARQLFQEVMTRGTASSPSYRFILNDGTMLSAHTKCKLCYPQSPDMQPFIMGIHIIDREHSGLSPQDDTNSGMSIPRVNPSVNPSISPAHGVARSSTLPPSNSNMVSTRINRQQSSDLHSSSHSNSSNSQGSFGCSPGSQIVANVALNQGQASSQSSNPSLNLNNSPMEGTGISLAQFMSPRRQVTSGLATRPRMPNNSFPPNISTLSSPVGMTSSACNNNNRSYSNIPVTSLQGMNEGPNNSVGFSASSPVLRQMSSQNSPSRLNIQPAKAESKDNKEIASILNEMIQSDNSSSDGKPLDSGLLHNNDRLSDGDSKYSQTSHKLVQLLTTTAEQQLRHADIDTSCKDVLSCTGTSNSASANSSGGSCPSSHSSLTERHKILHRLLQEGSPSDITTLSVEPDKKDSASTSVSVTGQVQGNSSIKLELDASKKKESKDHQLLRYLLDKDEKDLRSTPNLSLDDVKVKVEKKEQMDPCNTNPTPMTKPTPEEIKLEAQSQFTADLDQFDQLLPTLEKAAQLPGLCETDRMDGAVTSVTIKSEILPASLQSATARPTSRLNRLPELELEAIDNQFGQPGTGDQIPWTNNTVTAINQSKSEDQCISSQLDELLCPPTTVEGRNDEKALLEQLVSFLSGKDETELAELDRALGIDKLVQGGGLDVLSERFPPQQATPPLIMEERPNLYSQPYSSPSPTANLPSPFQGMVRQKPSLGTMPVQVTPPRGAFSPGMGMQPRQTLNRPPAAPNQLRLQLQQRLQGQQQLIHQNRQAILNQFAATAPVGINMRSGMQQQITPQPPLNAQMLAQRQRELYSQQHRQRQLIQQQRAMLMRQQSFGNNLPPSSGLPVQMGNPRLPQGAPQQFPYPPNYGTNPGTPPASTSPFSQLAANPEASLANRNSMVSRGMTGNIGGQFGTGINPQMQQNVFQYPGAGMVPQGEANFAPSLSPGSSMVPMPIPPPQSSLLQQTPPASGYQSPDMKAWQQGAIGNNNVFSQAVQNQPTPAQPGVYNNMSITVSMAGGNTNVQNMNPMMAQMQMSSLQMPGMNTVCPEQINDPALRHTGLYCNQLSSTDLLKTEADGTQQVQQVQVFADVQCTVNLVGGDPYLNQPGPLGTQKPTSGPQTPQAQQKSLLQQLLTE
Chain of Peroxisome proliferator-activated receptor gamma/Nuclear receptor coactivator 3 (P37231 whole entry): as the sequence (P37231 whole entry) above
Chain of Peroxisome proliferator-activated receptor gamma/Nuclear receptor coactivator 3 (Q9Y6Q9 whole entry, further chain): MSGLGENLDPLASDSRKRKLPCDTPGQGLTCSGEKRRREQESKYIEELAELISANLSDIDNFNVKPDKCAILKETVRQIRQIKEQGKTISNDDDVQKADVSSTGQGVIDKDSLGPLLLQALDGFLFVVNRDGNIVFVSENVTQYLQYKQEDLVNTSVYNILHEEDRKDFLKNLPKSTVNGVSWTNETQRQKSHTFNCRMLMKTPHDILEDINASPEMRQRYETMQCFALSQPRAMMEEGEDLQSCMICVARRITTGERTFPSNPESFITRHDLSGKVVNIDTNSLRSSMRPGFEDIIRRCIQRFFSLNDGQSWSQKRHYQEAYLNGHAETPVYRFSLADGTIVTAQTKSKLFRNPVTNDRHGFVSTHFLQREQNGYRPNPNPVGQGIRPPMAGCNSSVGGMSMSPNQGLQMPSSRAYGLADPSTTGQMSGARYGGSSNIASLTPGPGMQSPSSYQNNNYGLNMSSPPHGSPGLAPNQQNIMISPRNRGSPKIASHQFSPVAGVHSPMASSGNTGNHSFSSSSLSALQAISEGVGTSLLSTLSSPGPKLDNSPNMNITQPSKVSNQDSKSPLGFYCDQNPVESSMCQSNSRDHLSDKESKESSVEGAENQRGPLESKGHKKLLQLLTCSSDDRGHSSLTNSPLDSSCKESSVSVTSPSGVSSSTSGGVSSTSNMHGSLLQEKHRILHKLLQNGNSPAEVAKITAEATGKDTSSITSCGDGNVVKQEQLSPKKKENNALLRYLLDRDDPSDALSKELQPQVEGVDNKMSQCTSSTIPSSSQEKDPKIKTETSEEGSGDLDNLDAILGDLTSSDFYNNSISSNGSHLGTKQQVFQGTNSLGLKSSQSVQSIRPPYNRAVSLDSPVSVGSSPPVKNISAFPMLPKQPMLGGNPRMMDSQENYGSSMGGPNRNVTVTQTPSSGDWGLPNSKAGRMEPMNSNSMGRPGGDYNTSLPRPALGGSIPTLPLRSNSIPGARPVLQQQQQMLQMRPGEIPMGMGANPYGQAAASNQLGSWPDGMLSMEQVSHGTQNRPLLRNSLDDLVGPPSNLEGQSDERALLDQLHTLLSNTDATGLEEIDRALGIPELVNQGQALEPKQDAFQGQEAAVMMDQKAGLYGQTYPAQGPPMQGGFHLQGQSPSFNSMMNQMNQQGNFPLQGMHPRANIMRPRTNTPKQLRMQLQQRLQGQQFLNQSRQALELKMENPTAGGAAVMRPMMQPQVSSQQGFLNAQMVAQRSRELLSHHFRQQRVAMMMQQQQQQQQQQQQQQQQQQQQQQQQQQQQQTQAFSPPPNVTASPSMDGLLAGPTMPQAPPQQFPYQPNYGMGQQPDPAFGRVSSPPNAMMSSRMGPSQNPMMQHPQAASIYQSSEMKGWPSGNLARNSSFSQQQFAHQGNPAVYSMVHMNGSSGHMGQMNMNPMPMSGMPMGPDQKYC
Chain of Glyceraldehyde-3-phosphate dehydrogenase (P04406 whole entry): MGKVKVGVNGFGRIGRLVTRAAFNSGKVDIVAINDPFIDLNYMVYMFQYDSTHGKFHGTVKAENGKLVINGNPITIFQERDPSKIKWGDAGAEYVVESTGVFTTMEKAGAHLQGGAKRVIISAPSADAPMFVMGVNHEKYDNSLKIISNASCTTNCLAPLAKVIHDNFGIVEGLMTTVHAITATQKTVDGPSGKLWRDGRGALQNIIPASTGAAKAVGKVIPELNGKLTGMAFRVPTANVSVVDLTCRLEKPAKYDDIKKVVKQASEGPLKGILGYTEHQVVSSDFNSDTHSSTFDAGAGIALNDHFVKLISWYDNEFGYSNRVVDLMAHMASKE

A word on the EC50: it is the concentration at which the effect is half-maximal. Usually AC50 stands for the concentration at which the activity in the assay is half-maximal. As for `Cc1ccccc1OCC(=O)Nc1sc(C(=O)Nc2cccc(C)c2C)c(C)c1C#N`, the EC50 in [1] was 36.5 µM (not active); in series [3], 52.4 µM (not active); in [4], < 79.4 µM (not active). In series [2], the AC50 result is listed as “inconclusive”.

In general, IC50 refers to the concentration needed to halve the response being measured. `COc1ccc(-c2nnc(-c3cc(OC)c(OC)c(OC)c3)o2)cc1OC`: the EC50 in series [5] and in series [8] was > 112 µM (not active) in each case. The IC50 in series [6] was 27.5 µM (active); in series [7] it was 12.5 µM (active).

In the case of `COc1ccc(N/C=C2/C(=O)N(c3ccc(OC)cc3)C(=O)c3ccccc32)cc1`, the concentration for half-maximal inhibition (IC50) in series [9] was > 111 µM (not active); in series [10] it was 8.99 µM (active).

As for `O=C(CC1CCCC1)Nc1ccc2c(c1)CCC2`, the concentration for a half-maximal effect (EC50) in series [1], in series [3] and in [4] was > 79.4 µM (not active) in each case. Besides, the half-maximal activity concentration (AC50) in series [11] is 7.08 µM (inconclusive).

On to `COc1cc(OC)c(/C=C2\SC(=O)N(CC(=O)Nc3ccccc3F)C2=O)c(OC)c1`, for which the figures for the IC50 in series [9] and in [10] were > 111 µM (not active) and 1.98 µM (active), respectively.

Consider `COc1ccc2nc(O)c(-c3nnn(-c4ccc(C)cc4)n3)cc2c1`, for which the IC50 in series [12] and in series [13] was > 100 µM (not active) each time.

On to `CCOc1ccccc1N1CCN(C2=C(Cl)C(=O)N(c3ccc(Cl)c(Cl)c3)C2=O)CC1`, for which the concentration for half-maximal inhibition (IC50) in series [12], in series [14] and in series [13] was > 100 µM (not active) in each case.

On to `c1ccc(-c2ccc(-c3ccccn3)nn2)nc1`, for which the results for the 50% effective concentration (EC50) in series [15] and in series [16] were > 100 µM (not active) and > 50 µM (not active), respectively.

As for `O=C(Nc1cccc(F)c1)Nc1ccc2c(c1)CCC2`, the IC50 in series [17] is > 100 µM (inactive); in series [20], 2.85 µM (active); in [21], 57.8 µM (active); in [24], > 100 µM (inactive). Further, the 50% effective concentration (EC50) in series [18] was < 0.1 µM (active); in series [19] it was 0.463 µM (active); in [22], 0.63 µM (active); in [23], > 120 µM (not active); in [25] it was 10.7 µM (active).
